Source: ChEMBL document CHEMBL1140494, “Imidazopiperidine amides as dipeptidyl peptidase IV inhibitors for the treatment of diabetes” (Bioorg Med Chem Lett, 2007)
One block for each molecule: values may come before it.

Columns and labels:
Dipeptidyl peptidase 9 = Dipeptidyl peptidase 9 (Homo sapiens, UniProt Q86TI2); experiment: Inhibition of DPP9
Dipeptidyl peptidase 4 = Dipeptidyl peptidase 4 (Homo sapiens, UniProt P27487); experiment: Inhibition of DPP4
Dipeptidyl peptidase 2 = Dipeptidyl peptidase 2 (Homo sapiens, UniProt Q9UHL4); experiment: Inhibition of QPP
[1] = Oral bioavailability in rat at 2 mg/kg, po; format: ADME, organism-based; conditions: in vivo
[2] = Half life in rat at 1 mg/kg, iv and 2 mg/kg, po; format: ADME, organism-based; conditions: in vivo
[3] = Plasma clearance in rat at 1 mg/kg, iv and 2 mg/kg, po; format: ADME, organism-based
[4] = Cmax in rat at 2 mg/kg, po; format: ADME, organism-based; set-up: dose 2 mg/kg, route oral; conditions: in vivo
[5] = Volume of distribution at steady state in rat at 1 mg/kg, iv and 2 mg/kg, po; format: ADME, organism-based; conditions: in vivo, read-out: Vdss
Dipeptidyl peptidase 8 = Dipeptidyl peptidase 8 (Homo sapiens, UniProt Q6V1X1); experiment: Inhibition of DPP8
Sequence of Dipeptidyl peptidase 8 (Q6V1X1 whole entry): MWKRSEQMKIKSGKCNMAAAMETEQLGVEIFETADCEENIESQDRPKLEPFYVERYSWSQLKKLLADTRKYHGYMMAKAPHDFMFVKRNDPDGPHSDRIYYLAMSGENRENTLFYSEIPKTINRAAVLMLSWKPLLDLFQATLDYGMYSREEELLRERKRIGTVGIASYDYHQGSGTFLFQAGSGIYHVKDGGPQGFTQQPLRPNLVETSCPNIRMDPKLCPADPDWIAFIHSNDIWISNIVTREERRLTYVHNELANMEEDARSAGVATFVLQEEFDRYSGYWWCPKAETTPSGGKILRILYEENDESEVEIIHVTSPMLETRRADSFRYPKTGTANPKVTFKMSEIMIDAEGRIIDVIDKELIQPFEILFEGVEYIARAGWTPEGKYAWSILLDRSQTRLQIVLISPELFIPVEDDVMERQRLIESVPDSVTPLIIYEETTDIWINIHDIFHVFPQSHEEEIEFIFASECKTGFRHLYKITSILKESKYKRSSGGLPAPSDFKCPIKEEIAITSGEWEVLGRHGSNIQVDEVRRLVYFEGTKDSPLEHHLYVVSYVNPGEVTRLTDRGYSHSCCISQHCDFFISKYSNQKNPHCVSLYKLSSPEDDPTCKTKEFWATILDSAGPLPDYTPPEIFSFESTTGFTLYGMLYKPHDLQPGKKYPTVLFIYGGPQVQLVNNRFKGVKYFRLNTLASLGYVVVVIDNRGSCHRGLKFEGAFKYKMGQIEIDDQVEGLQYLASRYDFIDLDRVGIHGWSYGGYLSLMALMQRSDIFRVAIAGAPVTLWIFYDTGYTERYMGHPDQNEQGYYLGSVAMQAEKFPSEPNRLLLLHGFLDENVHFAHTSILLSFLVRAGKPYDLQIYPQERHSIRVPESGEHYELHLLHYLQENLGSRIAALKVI

Sequence of Dipeptidyl peptidase 9 (Q86TI2 whole entry): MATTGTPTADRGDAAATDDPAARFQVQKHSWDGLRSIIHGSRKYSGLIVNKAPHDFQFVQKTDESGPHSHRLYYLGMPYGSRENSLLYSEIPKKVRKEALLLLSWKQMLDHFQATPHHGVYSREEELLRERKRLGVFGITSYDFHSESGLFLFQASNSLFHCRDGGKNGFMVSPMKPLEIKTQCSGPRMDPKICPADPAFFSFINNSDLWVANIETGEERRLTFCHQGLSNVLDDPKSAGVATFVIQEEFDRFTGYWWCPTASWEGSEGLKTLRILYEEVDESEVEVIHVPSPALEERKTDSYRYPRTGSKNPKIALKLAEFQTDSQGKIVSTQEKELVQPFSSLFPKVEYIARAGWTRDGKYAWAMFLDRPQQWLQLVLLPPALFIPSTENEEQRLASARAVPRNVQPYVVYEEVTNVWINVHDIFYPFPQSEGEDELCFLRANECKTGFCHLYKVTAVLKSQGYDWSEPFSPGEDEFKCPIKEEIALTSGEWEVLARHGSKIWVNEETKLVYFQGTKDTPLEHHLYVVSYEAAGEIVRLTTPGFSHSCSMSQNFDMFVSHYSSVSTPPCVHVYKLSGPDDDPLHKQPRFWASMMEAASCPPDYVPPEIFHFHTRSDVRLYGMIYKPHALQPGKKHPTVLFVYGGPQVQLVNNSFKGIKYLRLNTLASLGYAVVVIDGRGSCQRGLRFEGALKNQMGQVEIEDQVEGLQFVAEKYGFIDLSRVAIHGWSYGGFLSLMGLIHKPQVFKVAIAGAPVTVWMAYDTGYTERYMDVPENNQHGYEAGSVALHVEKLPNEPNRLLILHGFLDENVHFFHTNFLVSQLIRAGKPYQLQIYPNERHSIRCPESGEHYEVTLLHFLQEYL
Sequence of Dipeptidyl peptidase 4 (P27487 whole entry): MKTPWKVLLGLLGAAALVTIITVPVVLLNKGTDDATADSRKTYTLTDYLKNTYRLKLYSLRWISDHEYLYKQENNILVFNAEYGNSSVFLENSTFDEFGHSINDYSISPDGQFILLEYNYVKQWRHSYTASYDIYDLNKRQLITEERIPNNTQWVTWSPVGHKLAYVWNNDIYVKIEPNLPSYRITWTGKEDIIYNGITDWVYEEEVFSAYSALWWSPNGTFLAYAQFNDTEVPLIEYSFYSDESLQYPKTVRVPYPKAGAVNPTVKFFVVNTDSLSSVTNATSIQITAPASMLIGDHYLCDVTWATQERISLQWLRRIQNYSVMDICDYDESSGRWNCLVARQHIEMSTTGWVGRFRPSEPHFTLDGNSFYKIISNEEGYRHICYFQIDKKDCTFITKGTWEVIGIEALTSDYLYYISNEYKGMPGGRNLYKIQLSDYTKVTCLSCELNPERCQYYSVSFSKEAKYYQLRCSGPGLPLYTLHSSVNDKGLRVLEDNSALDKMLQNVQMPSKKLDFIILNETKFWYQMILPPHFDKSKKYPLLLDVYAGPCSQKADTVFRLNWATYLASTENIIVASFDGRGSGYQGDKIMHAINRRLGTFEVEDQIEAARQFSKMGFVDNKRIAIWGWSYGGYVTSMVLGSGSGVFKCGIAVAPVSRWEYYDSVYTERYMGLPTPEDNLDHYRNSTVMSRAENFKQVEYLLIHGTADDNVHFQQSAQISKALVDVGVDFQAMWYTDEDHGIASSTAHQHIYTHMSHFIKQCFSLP

SMILES: CC1c2nc(C(F)(F)F)n(C)c2CCN1C(=O)C[C@H](N)Cc1cc(F)c(F)cc1F (stereo not given in full)
bioavailability [1]: 40% | half-life [2]: 1.2 h | IC50 (Dipeptidyl peptidase 9): > 100 µM | clearance [3]: 81 mL/min/kg | Cmax [4]: 98 nM | IC50 (Dipeptidyl peptidase 2): 39 µM | Vd [5]: 8 L/kg

SMILES: CC1c2nc(C(C)(C)C)n(C)c2CCN1C(=O)C[C@H](N)Cc1cc(F)c(F)cc1F (stereo in doubt; 70a)
IC50 (Dipeptidyl peptidase 4): 0.63 µM | IC50 (Dipeptidyl peptidase 2): 37 µM

SMILES: Cn1c(C(F)(F)F)nc2c1CCN(C(=O)C[C@H](N)Cc1cc(F)c(F)cc1F)C2C1CC1 (stereo in doubt; 68a)
IC50 (Dipeptidyl peptidase 9): > 100 µM | IC50 (Dipeptidyl peptidase 4): 0.34 µM | IC50 (Dipeptidyl peptidase 2): > 100 µM

SMILES: Cn1c(C(F)(F)F)nc2c1CCN(C(=O)C[C@H](N)Cc1cc(F)c(F)cc1F)C2C1CC1 (stereo in doubt; 68b)
IC50 (Dipeptidyl peptidase 9): > 100 µM | IC50 (Dipeptidyl peptidase 4): 0.11 µM | IC50 (Dipeptidyl peptidase 2): 37 µM

SMILES: Cn1cnc2c1CCN(C(=O)C[C@H](N)Cc1cc(F)c(F)cc1F)C2C(F)(F)F (stereo in doubt; 67b)
bioavailability [1]: 16% | half-life [2]: 1.4 h | IC50 (Dipeptidyl peptidase 9): > 100 µM | clearance [3]: 93 mL/min/kg | Cmax [4]: 50 nM | IC50 (Dipeptidyl peptidase 4): 0.05 µM | IC50 (Dipeptidyl peptidase 2): 38 µM | Vd [5]: 8.3 L/kg

SMILES: CC1c2nc(C3CC3)n(C)c2CCN1C(=O)C[C@H](N)Cc1cc(F)c(F)cc1F (stereo not given in full) [listing 1 of 2 here]
IC50 (Dipeptidyl peptidase 2): 30 µM

SMILES: Cn1cnc2c1CCN(C(=O)C[C@H](N)Cc1cc(F)c(F)cc1F)C2C(F)(F)F (stereo in doubt; 67a)
IC50 (Dipeptidyl peptidase 9): > 100 µM | IC50 (Dipeptidyl peptidase 4): 0.38 µM | IC50 (Dipeptidyl peptidase 2): 76 µM

SMILES: CC1c2nc(C3CC3)n(C)c2CCN1C(=O)C[C@H](N)Cc1cc(F)c(F)cc1F (stereo not given in full) [listing 2 of 2 here]
IC50 (Dipeptidyl peptidase 2): 90 µM

SMILES: CC1c2nc(C(C)(C)C)n(C)c2CCN1C(=O)C[C@H](N)Cc1cc(F)c(F)cc1F (stereo in doubt; 70b)
IC50 (Dipeptidyl peptidase 4): 0.37 µM | IC50 (Dipeptidyl peptidase 2): 19 µM

More lines, now with the values ahead:

IC50 (Dipeptidyl peptidase 9): > 100 µM | IC50 (Dipeptidyl peptidase 4): 0.78 µM | IC50 (Dipeptidyl peptidase 2): 39 µM
SMILES: Cn1c(C(F)(F)F)nc2c1CCN(C(=O)C[C@H](N)Cc1cc(F)c(F)cc1F)C2Cc1ccc(F)cc1 (stereo in doubt; 72a)

IC50 (Dipeptidyl peptidase 9): > 100 µM | IC50 (Dipeptidyl peptidase 4): 0.065 µM | IC50 (Dipeptidyl peptidase 2): > 100 µM
SMILES: CC1c2nc(C(F)(F)F)n(C)c2CCN1C(=O)C[C@H](N)Cc1cc(F)ccc1F (stereo in doubt; 63b)

IC50 (Dipeptidyl peptidase 9): > 100 µM | IC50 (Dipeptidyl peptidase 4): 0.57 µM | IC50 (Dipeptidyl peptidase 2): 46 µM
SMILES: Cn1c(C(F)(F)F)nc2c1CCN(C(=O)C[C@H](N)Cc1cc(F)c(F)cc1F)C2Cc1ccccc1 (stereo in doubt; 71a)

IC50 (Dipeptidyl peptidase 9): > 100 µM | IC50 (Dipeptidyl peptidase 4): 0.15 µM | IC50 (Dipeptidyl peptidase 2): 92 µM
SMILES: Cn1c(C(F)(F)F)nc2c1CCN(C(=O)C[C@H](N)Cc1cc(F)ccc1F)C2

IC50 (Dipeptidyl peptidase 9): > 100 µM | IC50 (Dipeptidyl peptidase 4): 0.19 µM | IC50 (Dipeptidyl peptidase 2): > 100 µM
SMILES: CC1c2nc(C(F)(F)F)n(C)c2CCN1C(=O)C[C@H](N)Cc1cc(F)ccc1F (stereo in doubt; 63a)

bioavailability [1]: 16% | half-life [2]: 1.5 h | IC50 (Dipeptidyl peptidase 9): > 100 µM | clearance [3]: 64 mL/min/kg | Cmax [4]: 72 nM | IC50 (Dipeptidyl peptidase 4): 0.0084 µM | IC50 (Dipeptidyl peptidase 2): 20 µM | Vd [5]: 6.5 L/kg
SMILES: Cn1c(C(F)(F)F)nc2c1CCN(C(=O)C[C@H](N)Cc1cc(F)c(F)cc1F)C2Cc1ccccc1 (stereo in doubt; 71b)

IC50 (Dipeptidyl peptidase 9): > 100 µM | IC50 (Dipeptidyl peptidase 4): 0.25 µM | IC50 (Dipeptidyl peptidase 2): 64 µM
SMILES: N[C@@H](CC(=O)N1CCc2c(nc(C(F)(F)F)n2Cc2ccc(F)cc2)C1)Cc1cc(F)ccc1F

IC50 (Dipeptidyl peptidase 9): > 100 µM | IC50 (Dipeptidyl peptidase 4): 0.0058 µM | IC50 (Dipeptidyl peptidase 2): 15 µM
SMILES: Cn1c(C(F)(F)F)nc2c1CCN(C(=O)C[C@H](N)Cc1cc(F)c(F)cc1F)C2Cc1ccc(F)cc1 (stereo in doubt; 72b)

IC50 (Dipeptidyl peptidase 9): > 100 µM | IC50 (Dipeptidyl peptidase 8): > 100 µM | IC50 (Dipeptidyl peptidase 4): 0.25 µM | IC50 (Dipeptidyl peptidase 2): 56 µM
SMILES: N[C@@H](CC(=O)N1CCc2nc(C(F)(F)F)n(Cc3ccc(F)cc3)c2C1)Cc1cc(F)ccc1F

IC50 (Dipeptidyl peptidase 9): > 100 µM | IC50 (Dipeptidyl peptidase 4): 0.18 µM | IC50 (Dipeptidyl peptidase 2): > 100 µM
SMILES: CCn1c(C(F)(F)F)nc2c1CCN(C(=O)C[C@H](N)Cc1cc(F)ccc1F)C2

IC50 (Dipeptidyl peptidase 9): > 100 µM | IC50 (Dipeptidyl peptidase 4): 0.22 µM | IC50 (Dipeptidyl peptidase 2): 49 µM
SMILES: CC(C)Cn1c(C(F)(F)F)nc2c1CCN(C(=O)C[C@H](N)Cc1cc(F)ccc1F)C2

IC50 (Dipeptidyl peptidase 4): 0.14 µM | IC50 (Dipeptidyl peptidase 2): > 100 µM
SMILES: N[C@@H](CC(=O)N1CCc2[nH]c(C(F)(F)F)nc2C1)Cc1cc(F)ccc1F

IC50 (Dipeptidyl peptidase 9): > 100 µM | IC50 (Dipeptidyl peptidase 8): > 100 µM | IC50 (Dipeptidyl peptidase 4): 0.26 µM | IC50 (Dipeptidyl peptidase 2): 85 µM
SMILES: CC(C)Cn1c(C(F)(F)F)nc2c1CN(C(=O)C[C@H](N)Cc1cc(F)ccc1F)CC2
